Source: US20160298129A1, “ALS INHIBITOR HERBICIDE TOLERANT MUTANT PLANTS” (BAYER CROPSCIENCE NV, priority 2013, published 2016)

Key:
AHAS P197S = AHAS P197S (Arabidopsis thaliana, UniProt P17597, E575Q/P197S); type: biochemical
Protocol: (§1) Bacteria are grown at 37° C. in LB-medium containing 100 mg/l carbenicillin and 25 mg/l canamycin, induced with 1 mM isopropyl-β-D-thiogalactopyranoside at an OD600 of 0.6, cultivated for 16 hours at 18° C. and harvested by, e.g., centrifugation. Bacterial pellets are resuspended in 100 mM sodium phosphate buffer pH 7.0 containing 0.1 mM thiamine-pyrophosphate, 1 mM MgCl2, and 1 μM FAD at a concentration of 1 gram wet weight per 25 ml of buffer and disrupted by, e.g., sonification. The crude protein extract obtained after centrifugation is used for ALS activity measurements.
(§2) ALS protein can be extracted from leaves or tissue cultures, such as B. napus or B. juncea leaves, or B. napus or B. juncea tissue cultures as described by Ray (Plant Physiol, 1984, 75:827-831). An ALS assays can be carried out in 96-well microtiter plates using a modification of the procedure described by Ray (1984): The reaction mixture contains 20 mM potassium phosphate buffer pH 7.0, 20 mM sodium pyruvate, 0.45 mM thiamine-pyrophosphate, 0.45 mM MgCl2, 9 μM FAD. ALS enzyme and various concentrations of ALS inhibitors can be mixed in a final volume of 90 μl Assays can be initiated by adding enzyme and the assays can be terminated after 75 min incubation at 30° C. by the addition of 40 μl 0.5 M H2SO4.

AHAS W574L = AHAS W574L (Arabidopsis thaliana, UniProt P17597, E575Q/W574L); type: biochemical
Sequence of AHAS W574L (P17597 56-670 W574L/E575Q): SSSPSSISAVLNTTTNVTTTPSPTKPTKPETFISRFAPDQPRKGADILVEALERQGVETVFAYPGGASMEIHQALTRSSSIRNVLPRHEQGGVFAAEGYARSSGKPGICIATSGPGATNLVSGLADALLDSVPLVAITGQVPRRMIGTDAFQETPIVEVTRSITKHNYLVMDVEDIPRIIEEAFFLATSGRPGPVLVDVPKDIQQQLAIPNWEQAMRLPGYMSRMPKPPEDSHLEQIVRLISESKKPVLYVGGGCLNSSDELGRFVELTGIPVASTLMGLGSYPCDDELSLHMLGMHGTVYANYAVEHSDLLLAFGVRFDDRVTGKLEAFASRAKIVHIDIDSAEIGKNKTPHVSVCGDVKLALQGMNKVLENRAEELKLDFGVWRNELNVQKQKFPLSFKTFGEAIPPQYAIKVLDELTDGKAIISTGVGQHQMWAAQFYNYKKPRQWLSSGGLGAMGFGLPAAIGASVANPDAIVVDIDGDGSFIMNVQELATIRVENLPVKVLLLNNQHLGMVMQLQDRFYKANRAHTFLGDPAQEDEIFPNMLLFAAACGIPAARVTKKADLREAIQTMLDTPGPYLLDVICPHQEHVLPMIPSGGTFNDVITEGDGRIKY
Protocol: as §1, §2

AHAS D376E = AHAS D376E (Arabidopsis thaliana, UniProt P17597, D376E/E575Q); assay: biochemical; settings: for Resistance Factor / pI50: AHAS D376E
Sequence of AHAS D376E (P17597 56-670 D376E/E575Q): as the sequence (P17597 56-670 W574L/E575Q) above, with D321E, L519W counted along it
Protocol: as §1, §2

AHAS D376E-W574L = AHAS D376E-W574L (Arabidopsis thaliana, UniProt P17597, D376E/E575Q/W574L); assay: biochemical; settings: for Resistance Factor / pI50: AHAS D376E-W574L
Sequence of AHAS D376E-W574L (P17597 56-670 D376E/W574L/E575Q): as the sequence (P17597 56-670 W574L/E575Q) above, with D321E counted along it
Protocol: as §1, §2

AHAS P197S-D376E = AHAS P197S-D376E (Arabidopsis thaliana, UniProt P17597, D376E/E575Q/P197S); assay: biochemical; settings: for Resistance Factor / pI50: AHAS P197S-D376E
Sequence of AHAS P197S-D376E (P17597 56-670 P197S/D376E/E575Q): as the sequence (P17597 56-670 W574L/E575Q) above, with P142S, D321E, L519W counted along it
Protocol: as §1, §2

AHAS P197S-D376E-W574L = AHAS P197S-D376E-W574L (Arabidopsis thaliana, UniProt P17597, D376E/E575Q/P197S/W574L); assay: biochemical; settings: for Resistance Factor / pI50: AHAS P197S-D376E-W574L
Sequence of AHAS P197S-D376E-W574L (P17597 56-670 P197S/D376E/W574L/E575Q): as the sequence (P17597 56-670 W574L/E575Q) above, with P142S, D321E counted along it
Protocol: as §1, §2

AHAS P197S-W574L = AHAS P197S-W574L (Arabidopsis thaliana, UniProt P17597, E575Q/P197S/W574L); assay: biochemical; settings: for Resistance Factor / pI50: AHAS P197S-W574L
Sequence of AHAS P197S-W574L (P17597 56-670 P197S/W574L/E575Q): as the sequence (P17597 56-670 W574L/E575Q) above, with P142S counted along it
Protocol: as §1, §2

AHAS WT [1] = molecular target: AHAS WT (Arabidopsis thaliana, UniProt P17597, E575Q); assay: biochemical; settings: AHAS WT
Sequence of AHAS WT (Arabidopsis thaliana, UniProt P17597, E575Q) (P17597 56-670 E575Q): as the sequence (P17597 56-670 W574L/E575Q) above, with L519W counted along it
Protocol: as §1, §2

AHAS WT [2] = molecular target: AHAS WT (Arabidopsis thaliana, UniProt P17597); assay: biochemical
Sequence of AHAS WT (Arabidopsis thaliana, UniProt P17597) (P17597 56-670 E575Q): as the sequence (P17597 56-670 W574L/E575Q) above, with L519W counted along it
Protocol: as §1, §2

[3] = system: WT tissues (hypocotyl derived callus); assay: Callus culture on Foramsulfuron selection medium; type: cell-based, Brassica napus; settings: 250 nM in M-338 [H76] medium
Protocol: Five day old seedlings were used for the preparation of hypocotyl segments 7-10 mm in length. Hypocotyl segments were transferred to 14 cm Petri plates containing 75 ml of M-338 [H76] callus induction medium (25 explants/plate). M-338 [H76] medium is MS salts and vitamins (Murashige and Skoog, 1962), 20 g/l sucrose, 0.5 g/l MES, 0.5 g/l adenine sulphate, 5 mg/l silver nitrate, 0.5 mg/l 2,4-D, 0.2 mg/l kinetin and solidified with 5.5 g/l agarose (pH 5.7). Dishes were sealed and cultured at 24° C. with standard light conditions (16 h/day). After 3 weeks, calli developing at the ends of the explants were transferred to fresh M-338 [H76] plates (25 calli/plate). Calli were subcultured to fresh medium every 3 weeks (larger calli cut into two pieces).
Hypocotyl derived callus (9 weeks old) was used for the selection of herbicide resistant mutants. […] Dishes were cultured at 24° C. with standard light conditions (16 h/day). After 3 weeks, the calli were divided into 2 pieces each and replated on M-338 [H76] medium containing 1.0 μM Foramsulfuron. Further increases in Foramsulfuron concentration (e.g. 1.5 μM, 2.0 μM, 2.5 μM, 3.0 μM or higher) were made each subculture until rapidly growing green (resistant) calli could clearly be identified from the brown non-resistant tissues.

[4] = system: wild-type (WT) oilseed rape; assay: Field herbicide tolerance, visible phytotoxicity; type: in vivo, Brassica napus; settings: gai/ha: imazamox 40, bispyribac-sodium 50, propoxycarbazone-sodium 70, mesosulfuron-methyl 60, pyroxsulam 12.5 + cloquintocet-mexyl 37.5, each + rapeseed oil methylated 366.5
[5] = system: oilseed rape homozygous for HETO133 and HETO134 (133-134); assay: Field herbicide tolerance, visible phytotoxicity (ALS I W574L, ALS III W574L); type: in vivo, Brassica napus; settings: gai/ha: imazamox 40, bispyribac-sodium 50, propoxycarbazone-sodium 70, mesosulfuron-methyl 60, pyroxsulam 12.5 + cloquintocet-mexyl 37.5, each + rapeseed oil methylated 366.5
Excerpt: (§3) Seeds of spring oilseed rape homozygous for HETO139 and HETO134 were sown in a field according to typical practical agricultural methods together with seeds homozygous for HETO134 and HETO133 (comprising a W574L mutation on ALS III, which were obtained in the same way as HETO134), and with seeds homozygous for HETO134 and HETO132 (comprising a P197S and a W574L mutation on ALS III, which were obtained in essentially the same way as HETO139). Several ALS inhibitor herbicides were applied to the oilseed rape plants by using specific spray equipment for small plot applications.

[6] = system: oilseed rape homozygous for HETO132 and HETO134 (132-134); assay: Field herbicide tolerance, visible phytotoxicity (ALS I W574L, ALS III P197S-W574L); type: in vivo, Brassica napus; settings: gai/ha: imazamox 40, bispyribac-sodium 50, propoxycarbazone-sodium 70, mesosulfuron-methyl 60, pyroxsulam 12.5 + cloquintocet-mexyl 37.5, each + rapeseed oil methylated 366.5
Excerpt: as §3

[7] = system: oilseed rape homozygous for HETO139 and HETO134 (139-134); assay: Field herbicide tolerance, visible phytotoxicity (ALS I W574L, ALS III P197S-D376E); type: in vivo, Brassica napus; settings: gai/ha: imazamox 40, bispyribac-sodium 50, propoxycarbazone-sodium 70, mesosulfuron-methyl 60, pyroxsulam 12.5 + cloquintocet-mexyl 37.5, each + rapeseed oil methylated 366.5
Excerpt: as §3

Sequence of AHAS P197S (P17597 56-670 P197S/E575Q): as the sequence (P17597 56-670 W574L/E575Q) above, with P142S, L519W counted along it

Structure (SMILES) | Resistance Factor (AHAS P197S) | pI50 (AHAS P197S) | Resistance Factor (AHAS W574L) | pI50 (AHAS W574L) | Resistance Factor (AHAS D376E) | pI50 (AHAS D376E) | Resistance Factor (AHAS D376E-W574L) | pI50 (AHAS D376E-W574L) | Resistance Factor (AHAS P197S-D376E) | pI50 (AHAS P197S-D376E) | Resistance Factor (AHAS P197S-D376E-W574L) | pI50 (AHAS P197S-D376E-W574L) | Resistance Factor (AHAS P197S-W574L) | pI50 (AHAS P197S-W574L) | pI50 (AHAS WT [1]) | also measured
COc1ncc(F)c2nc(S(=O)(=O)Nc3c(F)cccc3F)nn12 [Florasulam, florasulam] | 28 | 6.4 | 1738 | 4.6 | 55 | 6.1 | >6918 | <4 | 2754 | 4.4 | >6918 | <4 | >6918 | <4 | 7.8 | –
COc1cc(OC)nc(NC(=O)NS(=O)(=O)c2cc(NC=O)ccc2C(=O)N(C)C)n1 [Foramsulfuron, foramsulfuron] | 12 | – | 5888 | – | 3715 | – | >11748 | – | >11748 | – | >11748 | – | >11748 | – | – | IC50 (AHAS D376E): 31.6 µM; IC50 (AHAS D376E-W574L): > 100 µM; IC50 (AHAS P197S-D376E): > 100 µM; IC50 (AHAS P197S-D376E-W574L): > 100 µM; IC50 (AHAS P197S-W574L): > 100 µM; IC50 (AHAS WT [2]): 0.00794 µM; inhibition of callus tissues [3]: clearly inhibitory
COc1cc(OC)n2nc(NS(=O)(=O)c3c(C(F)(F)F)ccnc3OC)nc2n1 [Pyroxsulam, pyroxsulam] | 261 | 6.2 | >41368 | <4 | 656 | 5.8 | >41368 | <4 | >41368 | <4 | >41368 | <4 | >41368 | <4 | 8.6 | Percentage phytotoxicity ([4]; 9 DAA): 76.7%; Percentage phytotoxicity ([4]; 16 DAA): 98%; Percentage phytotoxicity ([4]; 24 DAA): 98%; Percentage phytotoxicity ([5]; 9 DAA): 13.3%; Percentage phytotoxicity ([5]; 16 DAA): 17%; Percentage phytotoxicity ([5]; 24 DAA): 15%; Percentage phytotoxicity ([6]; 9 DAA): 13.3%; Percentage phytotoxicity ([6]; 16 DAA): 16%; Percentage phytotoxicity ([6]; 24 DAA): 5%; Percentage phytotoxicity ([7]; 9 DAA): 10.7%; Percentage phytotoxicity ([7]; 16 DAA): 16%; Percentage phytotoxicity ([7]; 24 DAA): 10.7%
